Reference: ChEMBL document CHEMBL5131415, “Cadiolide analogues and their precursors as new inhibitors of bacterial quorum sensing and biofilm formation” (2022)
Active and inactive are the calls of the source. No cut-off for these calls is given here.

system: Pseudomonas aeruginosa; experiment: Inhibition of biofilm formation in Pseudomonas aeruginosa PAO1 at 50 ug/ml by crystal violet staining based microtiter plate method relative to control; format: functional; details: not given

In order of falling inhibition at 50 µg/mL:
1. COc1cc(C#CC(=O)c2ccc(Br)cc2)ccc1Br  29%
2. COc1ccc(C#CC(=O)c2ccc(Br)cc2)cc1  29%
3. COc1cccc(C2=C(C(=O)c3ccc(Br)cc3)C(=O)OC2)c1  22.7%
4. COc1ccc(C2=C(C(=O)c3ccc(Br)cc3)C(=O)OC2)cc1Br  15.3%
5. O=C1O/C(=C\c2ccc(O)c(Br)c2)C(c2ccc(O)c(Br)c2)=C1C(=O)c1ccc(O)cc1  10%
6. COc1ccc(C(=O)C2=C(c3ccc(OC)c(Br)c3)/C(=C/c3ccc(Cl)cc3)OC2=O)cc1  10%

system: Escherichia coli; experiment: Inhibition of biofilm formation in Escherichia coli RP347 at 50 ug/ml by crystal violet staining based microtiter plate method relative to control; format: functional; details: Escherichia coli, RP347, dose 50 µg/ml

In order of falling inhibition at 50 µg/mL:
1. COc1ccc(C2=C(C(=O)c3cccc(Br)c3)C(=O)O/C2=C\c2ccc(Cl)cc2)cc1Br  100%
2. COc1ccc(C2=C(C(=O)c3ccc(Br)cc3)C(=O)OC2)cc1Br  100%
3. COc1ccc(/C=C2\OC(=O)C(C(=O)c3ccc(Br)cc3)=C2c2ccc(OC)c(Br)c2)cc1  100%
4. O=C1O/C(=C\c2ccc(O)c(Br)c2)C(c2ccc(O)c(Br)c2)=C1C(=O)c1ccc(Br)cc1  100%
5. O=C1O/C(=C\c2ccc(O)cc2)C(c2ccc(O)c(Br)c2)=C1C(=O)c1ccc(Br)cc1  100%
6. O=C1O/C(=C\c2ccc(Br)cc2)C(c2ccc(O)c(Br)c2)=C1C(=O)c1ccc(Br)cc1  100%
7. COc1cc(OC)c(/C=C2\OC(=O)C(C(=O)c3ccc(Br)cc3)=C2c2ccc(OC)c(Br)c2)c(OC)c1  100%
8. COc1ccc(C2=C(C(=O)c3cccc(Br)c3)C(=O)OC2)cc1Br  81.2%
9. COc1cc(C#CC(=O)c2ccc(Br)cc2)ccc1Br  75.1%

same assay, conditions: dose 50 µg/ml

For O=C1O/C(=C\c2ccc(Br)cc2)C(c2ccc(O)c(Br)c2)=C1C(=O)c1ccc(Br)cc1, the “inhibition (INH)” value was 90%.

system: Pseudomonas aeruginosa; experiment: Induction of biofilm formation in Pseudomonas aeruginosa PAO1 at 50 ug/ml by crystal violet staining based microtiter plate method relative to control; format: functional; details: dose 50.0 µg/ml

COc1ccc(C2=C(C(=O)c3cccc(Br)c3)C(=O)O/C2=C\c2ccc(Cl)cc2)cc1Br and COc1ccc(C2=C(C(=O)c3ccc(Br)cc3)C(=O)O/C2=C\c2ccc(C(F)(F)F)cc2)cc1Br cannot be ordered by Activity: over 75% for the first, over 75% for the second.

COc1ccc(/C=C2\OC(=O)C(C(=O)c3ccc(Br)cc3)=C2c2cccc(OC)c2)cc1 and COc1ccc(/C=C2\OC(=O)C(C(=O)c3ccc(Br)cc3)=C2c2ccc(OC)c(Br)c2)cc1Br cannot be ordered by Activity: over 75% for the first, over 75% for the second.

COc1ccc(C2=C(C(=O)c3cccc(Br)c3)C(=O)OC2)cc1Br and COc1ccc(C(=O)C#Cc2ccc(Br)c(OC)c2)cc1 cannot be ordered by Activity: over 80% for the first, over 80% for the second.

system: Escherichia coli; experiment: Inhibition of biofilm formation in Escherichia coli RP347 at 50 ug/ml by crystal violet staining based microtiter plate method; format: functional, organism-based; details: dose 50.0 µg/ml

For COc1ccc(/C=C2\OC(=O)C(C(=O)c3ccc(Br)cc3)=C2c2cccc(OC)c2)cc1, the inhibition was “Active”.
For O=C1O/C(=C\c2ccc(O)c(Br)c2)C(c2ccc(O)c(Br)c2)=C1C(=O)c1cccc(Br)c1, the inhibition was “Active”.
In the case of COc1cccc(C2=C(C(=O)c3ccc(Br)cc3)C(=O)O/C2=C\c2ccc(OC)c(Br)c2)c1, the inhibition is reported as “Active”.
For COc1ccc(C2=C(C(=O)c3ccc(Br)cc3)C(=O)O/C2=C\c2ccc(Br)cc2)cc1Br, the inhibition was “Active”.
For COc1ccc(C2=C(C(=O)c3cccc(Br)c3)C(=O)OC2)cc1Br, the inhibition was “Active”.
With COc1cccc(C2=C(C(=O)c3ccc(Br)cc3)C(=O)OC2)c1 the inhibition was “Active”.
In the case of COc1ccc(C(=O)C2=C(c3ccc(OC)c(Br)c3)/C(=C/c3ccc(OC)c(Br)c3)OC2=O)cc1, the inhibition is reported as “Active”.
For COc1ccc(C(=O)C2=C(c3ccc(OC)c(Br)c3)/C(=C/c3ccc(Cl)cc3)OC2=O)cc1, the inhibition was “Active”.
With COc1cccc(C2=C(C(=O)c3ccc(Br)cc3)C(=O)O/C2=C\c2ccc(Br)cc2)c1 the inhibition was “Active”.
In the case of COc1cc(C#CC(=O)c2cccc(Br)c2)ccc1Br, the inhibition is reported as “Active”.
With COc1ccc(C#CC(=O)c2ccc(Br)cc2)cc1 the inhibition was “Active”.
With COc1ccc(/C=C2\OC(=O)C(C(=O)c3cccc(Br)c3)=C2c2ccc(OC)c(Br)c2)cc1Br the inhibition was “Active”.
With COc1ccc(/C=C2\OC(=O)C(C(=O)c3ccc(Br)cc3)=C2c2ccc(OC)c(Br)c2)cc1Br the inhibition was “Active”.
With COc1ccc(C(=O)C2=C(c3ccc(OC)c(Br)c3)COC2=O)cc1 the inhibition was “Active”.
With COc1ccc(C(=O)C#Cc2ccc(Br)c(OC)c2)cc1 the inhibition was “Active”.

system: Vibrio harveyi; experiment: Inhibition of AHL-mediated quorum sensing system in Vibrio harveyi BB886 assessed as reduction in luminescence at 10 ug/ml by bioluminescence method relative to control; details: dose 10.0 µg/ml

In order of falling inhibition:
1. O=C1O/C(=C\c2ccc(O)c(Br)c2)C(c2ccc(O)c(Br)c2)=C1C(=O)c1ccc(O)cc1  88.7%
2. COc1cc(C#CC(=O)c2ccc(Br)cc2)ccc1Br  80%
3. COc1ccc(/C=C2\OC(=O)C(C(=O)c3ccc(Br)cc3)=C2c2ccc(OC)c(Br)c2)cc1  78.1%
4. COc1ccc(/C=C2\OC(=O)C(C(=O)c3ccc(Br)cc3)=C2c2ccc(OC)c(Br)c2)cc1Br  76.1%
5. COc1ccc(C2=C(C(=O)c3ccc(Br)cc3)C(=O)OC2)cc1Br  72.6%

system: not listed separately; experiment: Inhibition of Escherichia coli RP347 planktonic cell growth at 50 ug/ml by microplate reader analysis relative to control; format: functional; details: RP347, dose 50 µg/ml

In order of falling inhibition at 50 µg/mL:
1. COc1ccc(C(=O)C2=C(c3ccc(OC)c(Br)c3)COC2=O)cc1  87.4%
2. COc1ccc(C#CC(=O)c2ccc(Br)cc2)cc1  82.6%
3. COc1cccc(C2=C(C(=O)c3ccc(Br)cc3)C(=O)OC2)c1  76.5%
4. O=C1O/C(=C\c2ccc(O)cc2)C(c2ccc(O)c(Br)c2)=C1C(=O)c1ccc(Br)cc1  61.9%
5. O=C1O/C(=C\c2ccc(O)c(Br)c2)C(c2ccc(O)c(Br)c2)=C1C(=O)c1ccc(O)cc1  33.4%

system: Vibrio harveyi; experiment: Inhibition of AI-2-mediated quorum sensing system in Vibrio harveyi BB170 assessed as reduction in AI-2 production at 10 ug/ml by bioluminescence method relative to control; details: dose 10.0 µg/ml

First: COc1ccc(/C=C2\OC(=O)C(C(=O)c3ccc(Br)cc3)=C2c2cccc(OC)c2)cc1
Second: COc1ccc(C(=O)C2=C(c3ccc(OC)c(Br)c3)/C(=C/c3ccc(OC)c(Br)c3)OC2=O)cc1
The inhibition of the first is higher: 76.1% for the first, 74.9% for the second.

COc1ccc(C2=C(C(=O)c3ccc(Br)cc3)C(=O)OC2)cc1Br and COc1ccc(C2=C(C(=O)c3cccc(Br)c3)C(=O)OC2)cc1Br cannot be ordered by inhibition: over 80% for the first, over 80% for the second.

Going from O=C1O/C(=C\c2ccc(O)c(Br)c2)C(c2ccc(O)c(Br)c2)=C1C(=O)c1ccc(O)cc1 to COc1ccc(C#CC(=O)c2ccc(Br)cc2)cc1, the inhibition rises from 99.6% to 100%.

COc1cc(C#CC(=O)c2cccc(Br)c2)ccc1Br and COc1ccc(C(=O)C#Cc2ccc(Br)c(OC)c2)cc1 are the same in inhibition: 100% for the first, 100% for the second.
